Test results taken from ChEMBL document CHEMBL3822374, “Anti-inflammatory polyphenol constituents derived from Cissus pteroclada Hayata” (Bioorg Med Chem Lett, 2016).

Legend:
RAW264.7 [1] = test: Antiinflammatory activity against LPS-stimulated mouse RAW264.7 cells assessed as IL1beta levels by ELISA (reference value: 8.70 +/- 0.365 pg/mL); format: functional
RAW264.7 [2] = test: Antiinflammatory activity against LPS-stimulated mouse RAW264.7 cells assessed as TNFalpha levels by ELISA (reference value: 183.21 +/- 5.36 pg/mL); format: functional
RAW264.7 [3] = test: Antiinflammatory activity against LPS-stimulated mouse RAW264.7 cells assessed as NO levels by ELISA (reference value: 0.95 +/- 0.052 umol/mL); format: functional
[4] = Inhibition of NFkappaB signaling pathway in LPS-stimulated mouse RAW264.7 cells assessed as protein levels by ELISA (reference value: 1.23 +/- 0.06 pg/mL); format: cell-based
RAW264.7 [5] = test: Antiinflammatory activity against LPS-stimulated mouse RAW264.7 cells assessed as PGE2 levels by ELISA (reference value: 33.2 +/- 2.33 pg/mL); format: functional
RAW264.7 [6] = test: Antiinflammatory activity against LPS-stimulated mouse RAW264.7 cells assessed as COX2 levels by ELISA (reference value: 159.64 +/- 13.56 pg/mL); format: functional
RAW264.7 [7] = test: Antiinflammatory activity against LPS-stimulated mouse RAW264.7 cells assessed as iNOS levels by ELISA (reference value: 31.63 +/- 3.26 U/mL); format: functional
[8] = Inhibition of NFkappaB signaling pathway in LPS-stimulated mouse RAW264.7 cells by ELISA; format: cell-based
RAW264.7 [9] = test: Cytotoxicity against mouse RAW264.7 cells assessed as reduction in cell viability at 50 umol/L after 24 hrs by MTT assay; format: cell-based; conditions: raw264.7, 24 h, 50 µM
RAW264.7 [10] = test: Antiinflammatory activity against LPS-stimulated mouse RAW264.7 cells assessed as downregulation of PGE2 levels by ELISA; format: functional, cell-based
RAW264.7 [11] = test: Antiinflammatory activity against LPS-stimulated mouse RAW264.7 cells assessed as downregulation of COX2 levels by ELISA; format: functional, cell-based
RAW264.7 [12] = test: Antiinflammatory activity against LPS-stimulated mouse RAW264.7 cells assessed as downregulation of NO levels by ELISA; format: functional, cell-based
RAW264.7 [13] = test: Cytotoxicity against LPS-stimulated mouse RAW264.7 cells assessed as reduction in cell viability at 50 umol/L after 24 hrs by MTT assay; format: cell-based; conditions: raw264.7, 24 h, 50 µM
RAW264.7 [14] = test: Antiinflammatory activity against LPS-stimulated mouse RAW264.7 cells assessed as downregulation of iNOS levels by ELISA; format: functional, cell-based
RAW264.7 [15] = test: Antiinflammatory activity against LPS-stimulated mouse RAW264.7 cells assessed as PGE2 levels at 25 umol/L by ELISA (reference value: 33.2 +/- 2.33 pg/mL); format: functional
[16] = Inhibition of NFkappaB signaling pathway in LPS-stimulated mouse RAW264.7 cells assessed as protein levels at 25 umol/L by ELISA (reference value: 1.23 +/- 0.06 pg/mL); format: cell-based
RAW264.7 [17] = test: Antiinflammatory activity against LPS-stimulated mouse RAW264.7 cells assessed as TNFalpha levels at 5 umol/L by ELISA (reference value: 183.21 +/- 5.36 pg/mL); format: functional
RAW264.7 [18] = test: Antiinflammatory activity against LPS-stimulated mouse RAW264.7 cells assessed as TNFalpha levels at 25 umol/L by ELISA (reference value: 183.21 +/- 5.36 pg/mL); format: functional
RAW264.7 [19] = test: Antiinflammatory activity against LPS-stimulated mouse RAW264.7 cells assessed as COX2 levels at 50 umol/L by ELISA (reference value: 159.64 +/- 13.56 pg/mL); format: functional
RAW264.7 [20] = test: Antiinflammatory activity against LPS-stimulated mouse RAW264.7 cells assessed as NO levels at 50 umol/L by ELISA (reference value: 0.95 +/- 0.052 umol/mL); format: functional
RAW264.7 [21] = test: Antiinflammatory activity against LPS-stimulated mouse RAW264.7 cells assessed as PGE2 levels at 50 umol/L by ELISA (reference value: 33.2 +/- 2.33 pg/mL); format: functional
RAW264.7 [22] = test: Antiinflammatory activity against LPS-stimulated mouse RAW264.7 cells assessed as iNOS levels at 25 umol/L by ELISA (reference value: 31.63 +/- 3.26 U/mL); format: functional
RAW264.7 [23] = test: Antiinflammatory activity against LPS-stimulated mouse RAW264.7 cells assessed as PGE2 levels at 5 umol/L by ELISA (reference value: 33.2 +/- 2.33 pg/mL); format: functional
RAW264.7 [24] = test: Antiinflammatory activity against LPS-stimulated mouse RAW264.7 cells assessed as COX2 levels at 5 umol/L by ELISA (reference value: 159.64 +/- 13.56 pg/mL); format: functional
RAW264.7 [25] = test: Antiinflammatory activity against LPS-stimulated mouse RAW264.7 cells assessed as COX2 levels at 25 umol/L by ELISA (reference value: 159.64 +/- 13.56 pg/mL); format: functional
RAW264.7 [26] = test: Antiinflammatory activity against LPS-stimulated mouse RAW264.7 cells assessed as IL1beta levels at 5 umol/L by ELISA (reference value: 8.70 +/- 0.365 pg/mL); format: functional
RAW264.7 [27] = test: Antiinflammatory activity against LPS-stimulated mouse RAW264.7 cells assessed as iNOS levels at 50 umol/L by ELISA (reference value: 31.63 +/- 3.26 U/mL); format: functional
[28] = Inhibition of NFkappaB signaling pathway in LPS-stimulated mouse RAW264.7 cells assessed as protein levels at 50umol/L by ELISA (reference value: 1.23 +/- 0.06 pg/mL); format: cell-based
[29] = Inhibition of NFkappaB signaling pathway in LPS-stimulated mouse RAW264.7 cells assessed as protein levels at 5 umol/L by ELISA (reference value: 1.23 +/- 0.06 pg/mL); format: cell-based
RAW264.7 [30] = test: Antiinflammatory activity against LPS-stimulated mouse RAW264.7 cells assessed as IL1beta levels at 25 umol/L by ELISA (reference value: 8.70 +/- 0.365 pg/mL); format: functional
RAW264.7 [31] = test: Antiinflammatory activity against LPS-stimulated mouse RAW264.7 cells assessed as NO levels at 25 umol/L by ELISA (reference value: 0.95 +/- 0.052 umol/mL); format: functional
RAW264.7 [32] = test: Antiinflammatory activity against LPS-stimulated mouse RAW264.7 cells assessed as NO levels at 5 umol/L by ELISA (reference value: 0.95 +/- 0.052 umol/mL); format: functional
RAW264.7 [33] = test: Antiinflammatory activity against LPS-stimulated mouse RAW264.7 cells assessed as iNOS levels at 5 umol/L by ELISA (reference value: 31.63 +/- 3.26 U/mL); format: functional
RAW264.7 [34] = test: Antiinflammatory activity against LPS-stimulated mouse RAW264.7 cells assessed as IL1beta levels at 50 umol/L by ELISA (reference value: 8.70 +/- 0.365 pg/mL); format: functional
RAW264.7 [35] = test: Antiinflammatory activity against LPS-stimulated mouse RAW264.7 cells assessed as TNFalpha levels at 50 umol/L by ELISA (reference value: 183.21 +/- 5.36 pg/mL); format: functional

COc1ccc2c(c1)c(CC(=O)O)c(C)n2C(=O)c1ccc(Cl)cc1 [INDOMETHACIN]
Activity (RAW264.7 [1]): 3.15 pg/mL
Activity (RAW264.7 [2]): 58.55 pg/mL
Activity (RAW264.7 [3]): 0.17 µmol/mL
Activity [4]: 0.39 pg/mL
Activity (RAW264.7 [5]): 19.67 pg/mL
Activity (RAW264.7 [6]): 71.47 pg/mL
Activity (RAW264.7 [7]): 17.38 U/ml

COc1c(O)cc2c(c1O)[C@@H]1O[C@H](CO)[C@@H](O)[C@H](O)[C@H]1OC2=O [BERGENIN]
inhibition [8]: Dose-dependent effect
Activity (RAW264.7 [9]): Non-toxic
Activity (RAW264.7 [10]): Dose-dependent effect
Activity (RAW264.7 [11]): Dose-dependent effect
Activity (RAW264.7 [12]): Dose-dependent effect
Activity (RAW264.7 [13]): Non-toxic
Activity (RAW264.7 [14]): Dose-dependent effect

COc1c(O)cc2c(c1O)[C@@H]1O[C@H](CO[C@H]3O[C@H](CO)[C@H](O)[C@H](O)[C@H]3O)[C@@H](O)[C@H](O)[C@H]1OC2=O
inhibition [8]: Dose-dependent effect
Activity (RAW264.7 [9]): Non-toxic
Activity (RAW264.7 [10]): Dose-dependent effect
Activity (RAW264.7 [11]): Dose-dependent effect
Activity (RAW264.7 [12]): Dose-dependent effect
Activity (RAW264.7 [13]): Non-toxic
Activity (RAW264.7 [14]): Dose-dependent effect

Oc1ccc(/C=C/c2cc(O)cc(O)c2)cc1 [RESVERATROL]
Activity (RAW264.7 [15]): 29.15 pg/mL
Activity [16]: 0.25 pg/mL
Activity (RAW264.7 [9]): Non-toxic
Activity (RAW264.7 [17]): 109.42 pg/mL
Activity (RAW264.7 [18]): 96.47 pg/mL
Activity (RAW264.7 [19]): 83.48 pg/mL
Activity (RAW264.7 [20]): 0.053 µmol/mL
Activity (RAW264.7 [21]): 28.81 pg/mL
Activity (RAW264.7 [22]): 25.88 U/ml
Activity (RAW264.7 [23]): 31.43 pg/mL
Activity (RAW264.7 [24]): 121.49 pg/mL
Activity (RAW264.7 [25]): 104.11 pg/mL
Activity (RAW264.7 [26]): 5.26 pg/mL
Activity (RAW264.7 [27]): 19.26 U/ml
Activity (RAW264.7 [13]): Non-toxic
Activity [28]: 0.15 pg/mL
Activity [29]: 0.57 pg/mL
Activity (RAW264.7 [30]): 4.76 pg/mL
Activity (RAW264.7 [31]): 0.082 µmol/mL
Activity (RAW264.7 [32]): 0.38 µmol/mL
Activity (RAW264.7 [33]): 29.22 U/ml
Activity (RAW264.7 [34]): 2.98 pg/mL
Activity (RAW264.7 [35]): 74.91 pg/mL

O=c1c(O)c(-c2cc(O)c(O)c(O)c2)oc2cc(O)cc(O)c12 [MYRICETIN]
Activity (RAW264.7 [15]): 23.36 pg/mL
Activity [16]: 0.443 pg/mL
Activity (RAW264.7 [9]): Non-toxic
Activity (RAW264.7 [17]): 36.23 pg/mL
Activity (RAW264.7 [18]): 35.59 pg/mL
Activity (RAW264.7 [19]): 118.25 pg/mL
Activity (RAW264.7 [20]): 0.12 µmol/mL
Activity (RAW264.7 [21]): 23.33 pg/mL
Activity (RAW264.7 [22]): 21.38 U/ml
Activity (RAW264.7 [23]): 27.23 pg/mL
Activity (RAW264.7 [24]): 174.99 pg/mL
Activity (RAW264.7 [25]): 142.13 pg/mL
Activity (RAW264.7 [26]): 3.44 pg/mL
Activity (RAW264.7 [27]): 17.44 U/ml
Activity (RAW264.7 [13]): Non-toxic
Activity [28]: 0.34 pg/mL
Activity [29]: 0.453 pg/mL
Activity (RAW264.7 [30]): 0.91 pg/mL
Activity (RAW264.7 [31]): 0.24 µmol/mL
Activity (RAW264.7 [32]): 0.42 µmol/mL
Activity (RAW264.7 [33]): 24.26 U/ml
Activity (RAW264.7 [34]): 0.89 pg/mL
Activity (RAW264.7 [35]): 35.44 pg/mL
